From patent publication US20160074428A1, “COMPOSITIONS AND METHODS FOR THE TREATMENT OF HUMAN IMMUNODEFICIENCY VIRUS INFECTION” (THE CHILDREN'S HOSPITAL OF PHILADELPHIA, priority 2013, published 2016)
No end group written: not given here.

What was measured:
lymphocytes = assay: Intracellular calcium measurement by flow cytometry in lymphocytes; assay type: cell-based, human; settings: SP at concentrations as high as 30 μM; data not shown
Procedure: (§1) Intracellular calcium measurements. Freshly isolated monocytes were washed in Hank's balanced salt solution (HBSS) containing 1 mM calcium chloride then loaded with Fluo-4 AM (2 μM) and Fura-red AM (2 μM). Intracellular calcium recordings were performed using the Accuri C6 Analyzer (BD Biosciences, San Jose, Calif.). Fluorescence intensities were recorded in FL1-A (Fluo-4 AM) and FL3-A (Fura-red AM) channels. Intracellular calcium measurements were quantified by calculating the ratio between FL1-A/FL3-A values as a derived parameter in FlowJo 7.6.5 for Windows (Treestar Inc., Ashland, Oreg.) as previously described (1).
SP induces intracellular calcium increase in human monocytes. Our previous studies have shown that in U373MG cell NK1R stimulates the release of Ca^2+ from intracellular stores though activation of phospholipase C. To assess whether the effect of SP on monocytes is due to activation of NK1R we examined the levels of intracellular Ca^2+. We used a ratiometric calcium assay, where PBMC were loaded with Fluo-4 and Fura-red, then stimulated again with SP or appropriate agonist. Gating on lymphocyte and monocyte populations was performed based of light scattering properties of the cells (FIG. 1A). […] This pharmacology profile of NK1R, with high concentrations of SP required to elicit a response is consistent with the truncated form of NK1R.

HIV = settings: cited from earlier work
CD163 = CD163 measurement by flow cytometry on monocytes/macrophages; assay type: cell-based, human; settings: for CD163 expression, time course: 10 μM SP
Procedure: CD163 measurement by flow cytometry. For time-course experiments, freshly isolated monocytes were stimulated with either IL-10 (20 ng/ml) or SP (10 μM) and after 0, 2, 4 and 6 days of culture the cells were detached and the expression of membrane-bound CD163 was quantified by flow cytometry. For the dose-response experiments, freshly isolated monocytes were stimulated with either IL-10 (0.2, 0.6, 2, 6 or 20 ng/ml) or SP (0.3, 1, 3, 10 or 30 μM) and after 4 days of culture the cells were detached for CD163 measurement. Macrophages were detached using Lidocaine (4 mg/ml) in HBSS with EDTA (1 mM) for 30 minutes at 37° C. Cells were labeled with anti-human CD163 antibody (clone R-20) conjugated with PE (Trillium Diagnostics, Scarborough, Me.) for 30 minutes at room temperature. After labeling, cells were washed and resuspended in Hank's balanced salt solution (HBSS). Flow cytometry experiments were performed on an Accuri C6 analyzer (BD Biosciences, San Jose, Calif.) in the Flow Cytometry Core Laboratory of the Children's Hospital of Philadelphia Research Institute.

NK1R = biological target: T1, NK1R (Homo sapiens, UniProt P25103); assay: Intracellular calcium measurement by flow cytometry (Fluo-4/Fura-red ratio) in monocytes; assay type: cell-based
T1 construct: endogenous in cells; host or cells: freshly isolated human blood monocytes (gated within PBMC)
T1 sequence (P25103 1-311): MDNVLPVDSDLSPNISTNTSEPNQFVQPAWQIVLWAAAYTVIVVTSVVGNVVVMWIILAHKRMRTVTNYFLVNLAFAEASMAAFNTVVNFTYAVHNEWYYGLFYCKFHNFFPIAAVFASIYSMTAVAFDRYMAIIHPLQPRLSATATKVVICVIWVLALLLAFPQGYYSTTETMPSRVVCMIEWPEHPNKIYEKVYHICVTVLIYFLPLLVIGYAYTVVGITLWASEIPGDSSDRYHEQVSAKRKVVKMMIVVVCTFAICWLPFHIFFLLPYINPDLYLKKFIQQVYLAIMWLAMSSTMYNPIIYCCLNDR
Procedure: as §1
Gating on lymphocyte and monocyte populations was performed based of light scattering properties of the cells (FIG. 1A).

[1] = system: HIV-GFP-tagged reporter virus pSF162R3 Nef+; assay: Infection of macrophages with HIV-GFP-tagged reporter virus, GFP fluorescence; assay type: cell-based; settings: 0, 2, 10 or 50 μg/ml HbHp complex, 7 days postinfection
Procedure: FIG. 5. Effect of HbHp-complexes on HIV infection in macrophages. Hb and Hp were added to macrophages in a 1:1 molar ratio and incubated for 2 h at 37° C. a) Macrophages, treated with 0, 2, 10 or 20 μg/ml of HbHp complex and infected with HIV-BaL, were assayed 7 days postinfection for HIV GAG by real time RT PCR. b) Macrophages, treated with 0, 2, 10 or 50 μg/ml of HbHp complex and infected with HIV-GFP-tagged reported virus, were assayed 7 days postinfection for GFP fluorescence. c) Representative images of macrophages, treated with 0, 2, 10, and 50 μg/ml of HbHp complex and infected with HIV-GFP-tagged reported virus 7 days postinfection. Average results of three independent experiments are presented as mean±SD.
Virus. The M-tropic HIV-1 R5 strain Bal was obtained from the NIH AIDS Reagent Program. The HIV-GFP-tagged reporter virus pSF162R3 Nef+, was made based on HIV-SF162 strain and was a gift from Dr. Amanda Brown (John Hopkins School of Medicine, Baltimore, Md.) (45).
Microscopy. Macrophages were infected with HIV-GFP-tagged reported virus pSF162R3 Nef+. […] GFP intensity was quantified using ImageJ (National Institute of Mental Health, Bethesda, Md., USA).

HIV-Bal = HIV-Bal infection of macrophages, HIV gag mRNA by real time RT-PCR; assay type: cell-based, HIV-1; settings: 0, 2, 10 or 20 μg/ml HbHp complex, 7 days postinfection
Procedure: HIV infection. Macrophages were incubated with HIV-Bal virus overnight, and then extensively washed to remove unbound virus. The culture medium and the reagents were replaced twice weekly. At days 5, 7, 9 and 11 post HIV infection, cellular RNA was extracted from the MDM for assessment of HIV gag mRNA expression using real time RT-PCR assays.
RNA Extraction and Real-Time RT PCR Assays. Total RNA was extracted from macrophages using RNeasy kit (Qiagen), and the potential DNA contamination was eliminated by on-column DNase digestion as instructed by the manufacturer (Qiagen). RNA concentration was determined by Qubit fluorometer using Quant-iT RNA Assay kit (Invitrogen, Eugene, Oreg.).
Total RNA (1 μg) was reverse transcribed using AffinityScript QPCR cDNA Synthesis kit ([…], Cedar Creek, Tex.) with random primer as instructed by the manufacture. Reverse transcriptase negative controls were used in order to control for genomic DNA contamination. 1 μl of the resulting cDNA was used as a template for real-time PCR amplification.
RNA Interference (RNAi). RNAi CD163 pool and control RNAi was purchased from Santa Cruz Biotechnologies. The siRNAs pool was transfected into macrophages with Lipofectamine RNAimax (Invitrogen), following the manufacturer's protocol. Experiments were carried out 48 h after transfection.

Substance P (RPKPQQFFGLM; ends and bridges not checked; UniProt P20366 58-68, looked up) [SP, undecapeptide neurotransmitter of the tachykinin family; purchased from Sigma]
intracellular Ca2+ increase in lymphocytes (lymphocytes): did not induce intracellular Ca^2+ increase | effect on HIV infection of MDM (HIV): promotes HIV infection | extent of CD163 induction compared with IL-10 (CD163): lower extent than that induced by IL-10 | CD163 expression, time course (CD163; 4 days): significant increase | CD163 expression, time course (CD163; 6 days): did not persist | CD163 expression, dose response (CD163; SP 0.3-10 μM, 4 days): significant increase | levels of membrane bound CD163 with increasing doses (CD163; monocytes in AIM V medium without FBS, 4 days after treatment): progressively higher

C[C@@H](O[C@H]1OCCN(Cc2n[nH]c(=O)[nH]2)[C@H]1c1ccc(F)cc1)c1cc(C(F)(F)F)cc(C(F)(F)F)c1 [Aprepitant, aprepitant]
effect on SP induced calcium response (NK1R; pre-treatment with 50 μM for 15 minutes before adding 10 μM SP): abolished SP induced calcium response

Hb-Hp complexes: hemoglobin-haptoglobin complexes, Hb and Hp added in a 1:1 molar ratio; ligand of CD163
number of infected cells/well (GFP fluorescence) [1]: concentration-dependent decrease | HIV infection of macrophages (HIV GAG, RT PCR) (HIV-Bal): concentration-dependent decrease

Neurokinin B [NKB]
Ca2+ response to agonist (NK1R; 10 μM agonist, SP induced a response in the same samples): failed to induce Ca^2+ responses

B1: interleukin-10 (protein, UniProt P22301 19-178, looked up)
Interleukin-10: SPGQGTQSENSCTHFPGNLPNMLRDLRDAFSRVKTFFQMKDQLDNLLLKESLLEDFKGYLGCQALSEMIQFYLEEVMPQAENQDPDIKAHVNSLGENLKTLRLRLRRCHRFLPCENKSKAVEQVKNAFNKLQEKGIYKAMSEFDIFINYIEAYMTMKIRN
notes: anti-inflammatory mediator that upregulates CD163 expression
CD163 expression, dose response (CD163; 0.2 ng/ml IL-10, 4 days of culture): significant increase | expression of CD163, time course (CD163; 20 ng/ml IL-10, 2 days): significant increase | CD163 expression, dose response (CD163; 20 ng/ml IL-10, 4 days of culture): had not induced maximal increase | expression of CD163, time course (CD163; 20 ng/ml IL-10, days 4 and 6, compared with day 2): higher
